# Experimental data as given in patent US6706663B2, “Herbicidal 3-heterocyclic substituted benzisothiazole and benzisoxazole compounds” (Wyeth, priority 2000, dated 2004).
# What was measured:
# [1] = tested on: SAGPY (Sagittaria pygmaea); experiment: Flooded paddy, preemergence weed control; assay type: in vivo, L.; conditions: rated 3-4 weeks after treatment, 0-9 rating scale
# Method in brief: (§1)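 Visual 0-9 rating versus control, scoring stand, vigor, malformation, size, chlorosis and overall appearance. Silt loam soil, propagules in top 0.5 cm; flood depth 1.5–3 cm held for the whole test; greenhouse.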
# [2] = tested on: CHEAL (Chenopodium album); experiment: Preemergence herbicidal evaluation; assay type: in vivo, L.; conditions: rated 4-5 weeks after treatment
# Method in brief: (§2)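 Each species was sown separately in potting soil over roughly one inch of soil, and the surface sprayed with compound dissolved in aqueous acetone. Assessment used a 0–9 visual scale against a control after four to five weeks.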
# [3] = tested on: AMBEL (Ambrosia artemisifolia); experiment: Preemergence herbicidal evaluation; assay type: in vivo, L.; conditions: rated 4-5 weeks after treatment
# Method in brief: as §2
# [4] = tested on: CASOB (Cassia obtusifolia); experiment: Preemergence herbicidal evaluation; assay type: in vivo, L.; conditions: rated 4-5 weeks after treatment
# Method in brief: as §2
# SETVI (Setaria viridis) [5] = experiment: Preemergence herbicidal evaluation; assay type: in vivo, (L.) Beau; conditions: rated 4-5 weeks after treatment
# Method in brief: as §2
# [6] = tested on: ECHCG (Echinochloa crus-galli); experiment: Preemergence herbicidal evaluation; assay type: in vivo, (L.) Beau; conditions: rated 4-5 weeks after treatment
# Method in brief: as §2
# [7] = tested on: MOOVA (Monochoria vaginalis); experiment: Flooded paddy, preemergence weed control; assay type: in vivo, Presl.; conditions: rated 3-4 weeks after treatment, 0-9 rating scale
# Method in brief: as §1
# GALAP (Galium aparine) = experiment: Postemergence herbicidal evaluation; assay type: in vivo; conditions: postemergence
# Method in brief: (§3)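 Seedlings grown for about two weeks were sprayed postemergence and then kept under standard greenhouse care. Injury was rated visually 4–5 weeks after treatment on a 0–9 scale against untreated controls, and ratings from repeat tests were averaged.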
# ORYSAT (Rice, Tebonnet) [8] = experiment: Postemergence herbicidal evaluation; assay type: in vivo, Oryza sativa, (L.) Tebonnet; conditions: postemergence
# Method in brief: as §3
# ORYSAT (Rice, Tebonnet) [9] = experiment: Preemergence herbicidal evaluation; assay type: in vivo, Oryza sativa, (L.) Tebonnet; conditions: rated 4-5 weeks after treatment
# ORYSAT (Rice, Tebonnet) [10] = experiment: Flooded paddy, post-transplant rice tolerance; assay type: in vivo, Oryza sativa, (L.) Tebonnet; conditions: flooded paddy, post-transplant rice, rated 3-4 weeks after treatment, 0-9 rating scale
# Method in brief: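 Visual 0-9 rating against a control, covering stand, vigor, malformation, size, chlorosis and overall appearance. Treatment was applied after transplanting paired ten-day-old seedlings into flooded silt loam, with water kept 1.5 to 3 cm deep on greenhouse benches.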
# [11] = tested on: ABUTH (Abutilon theophrasti); experiment: Postemergence herbicidal evaluation; assay type: in vivo, Medic.; conditions: postemergence
# Method in brief: as §3
# CYPIR (Cyperus iria) = experiment: Flooded paddy, preemergence weed control; assay type: in vivo; conditions: rated 3-4 weeks after treatment, 0-9 rating scale
# Method in brief: as §1
# SETVI (Setaria viridis) [12] = experiment: Postemergence herbicidal evaluation; assay type: in vivo, (L.) Beau; conditions: postemergence
# Method in brief: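 First, seedlings are raised in flats for about two weeks. Next, compound dispersed in 50/50 acetone/water with 0.5% TWEEN 20 is sprayed at 40 psi to deliver about 0.0040–1.000 kg/ha. Plants are then maintained in the greenhouse and rated 0-9 after four to five weeks.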
# ZEAMX (Corn, Field) = experiment: Postemergence herbicidal evaluation; assay type: in vivo, Zea mays, L.; conditions: postemergence
# Method in brief: as §3
# [13] = tested on: IPOHE (Ipomoea hederacea); experiment: Preemergence herbicidal evaluation; assay type: in vivo, (L.) Jacq.; conditions: rated 4-5 weeks after treatment
# [14] = tested on: IPOHE (Ipomoea hederacea); experiment: Postemergence herbicidal evaluation; assay type: in vivo, (L.) Jacq.; conditions: postemergence
# Method in brief: as §3
# [15] = tested on: ECHCG (Echinochloa crus-galli); experiment: Postemergence herbicidal evaluation; assay type: in vivo, (L.) Beau; conditions: postemergence
# Method in brief: as §3
# [16] = tested on: GLXMAW (Soybean, Williams); experiment: Postemergence herbicidal evaluation; assay type: in vivo, Glycine max, (L.) Merr. cv Williams; conditions: postemergence
# Method in brief: as §3
# [17] = tested on: ECHORC (Echinochloa oryzoides); experiment: Flooded paddy, preemergence weed control; assay type: in vivo, Echinochloa oryzoides (Ard.) Fritsch.; conditions: rated 3-4 weeks after treatment, 0-9 rating scale
# Method in brief: as §1
# [18] = preemergence, rate 0.0620 kg/ha
# [19] = preemergence, rate 0.1250 kg/ha
# [20] = preemergence, rate 0.2500 kg/ha
compound,measurement,setting,value
"Cn1c(C(F)(F)F)cc(=O)n(-c2ccc3snc(-c4ccoc4)c3c2)c1=O [Compound 83, 3-[3-(3-furyl)-1,2-benzisothiazol-5-yl]-1-methyl-6-(trifluoromethyl)uracil]","herbicidal rating, SAGPY",[1]; rate 0.0080 kg/ha,0.0
same,"herbicidal rating, SAGPY",[1]; rate 0.0320 kg/ha,0.0
same,"herbicidal rating, SAGPY",[1]; rate 0.1250 kg/ha,0.0
same,Preemergence herbicidal rating CHEAL,[2]; [18],4.0
same,Preemergence herbicidal rating CHEAL,[2]; [19],9.0
same,Preemergence herbicidal rating CHEAL,[2]; [20],9.0
same,Preemergence herbicidal rating AMBEL,[3]; [18],6.0
same,Preemergence herbicidal rating AMBEL,[3]; [19],7.5
same,Preemergence herbicidal rating AMBEL,[3]; [20],9.0
same,Preemergence herbicidal rating CASOB,[4]; [18],0.0
same,Preemergence herbicidal rating CASOB,[4]; [19],0.0
same,Preemergence herbicidal rating CASOB,[4]; [20],1.0
same,Preemergence herbicidal rating SETVI,SETVI (Setaria viridis) [5]; [18],6.0
same,Preemergence herbicidal rating SETVI,SETVI (Setaria viridis) [5]; [19],9.0
same,Preemergence herbicidal rating SETVI,SETVI (Setaria viridis) [5]; [20],9.0
same,Preemergence herbicidal rating ECHCG,[6]; [18],2.0
same,Preemergence herbicidal rating ECHCG,[6]; [19],6.5
same,Preemergence herbicidal rating ECHCG,[6]; [20],9.0
same,"herbicidal rating, MOOVA",[7]; rate 0.0080 kg/ha,0.0
same,"herbicidal rating, MOOVA",[7]; rate 0.0320 kg/ha,9.0
same,"herbicidal rating, MOOVA",[7]; rate 0.1250 kg/ha,9.0
same,GALAP herbicidal rating,GALAP (Galium aparine); rate 0.0320 kg/ha,2.0
same,GALAP herbicidal rating,GALAP (Galium aparine); rate 0.0620 kg/ha,3.0
same,ORYSAT herbicidal rating,"ORYSAT (Rice, Tebonnet) [8]; rate 0.0320 kg/ha",1.5
same,ORYSAT herbicidal rating,"ORYSAT (Rice, Tebonnet) [8]; rate 0.0620 kg/ha",3.0
same,Preemergence herbicidal rating ORYSAT,"ORYSAT (Rice, Tebonnet) [9]; [18]",0.0
same,Preemergence herbicidal rating ORYSAT,"ORYSAT (Rice, Tebonnet) [9]; [19]",3.5
same,Preemergence herbicidal rating ORYSAT,"ORYSAT (Rice, Tebonnet) [9]; [20]",5.5
same,"herbicidal rating, ORYSAT (rice tolerance)","ORYSAT (Rice, Tebonnet) [10]; rate 0.0080 kg/ha",0.0
same,"herbicidal rating, ORYSAT (rice tolerance)","ORYSAT (Rice, Tebonnet) [10]; rate 0.0320 kg/ha",2.0
same,"herbicidal rating, ORYSAT (rice tolerance)","ORYSAT (Rice, Tebonnet) [10]; rate 0.1250 kg/ha",2.0
same,ABUTH herbicidal rating,[11]; rate 0.0320 kg/ha,6.0
same,ABUTH herbicidal rating,[11]; rate 0.0620 kg/ha,9.0
same,"herbicidal rating, CYPIR",CYPIR (Cyperus iria); rate 0.0080 kg/ha,0.0
same,"herbicidal rating, CYPIR",CYPIR (Cyperus iria); rate 0.0320 kg/ha,0.0
same,"herbicidal rating, CYPIR",CYPIR (Cyperus iria); rate 0.1250 kg/ha,3.0
same,SETVI herbicidal rating,SETVI (Setaria viridis) [12]; rate 0.0320 kg/ha,3.0
same,SETVI herbicidal rating,SETVI (Setaria viridis) [12]; rate 0.0620 kg/ha,4.0
same,ZEAMX herbicidal rating,"ZEAMX (Corn, Field); rate 0.0320 kg/ha",2.5
same,ZEAMX herbicidal rating,"ZEAMX (Corn, Field); rate 0.0620 kg/ha",3.0
same,Preemergence herbicidal rating IPOHE,[13]; [18],3.0
same,Preemergence herbicidal rating IPOHE,[13]; [19],5.0
same,Preemergence herbicidal rating IPOHE,[13]; [20],5.5
same,IPOHE herbicidal rating,[14]; rate 0.0320 kg/ha,2.0
same,IPOHE herbicidal rating,[14]; rate 0.0620 kg/ha,4.0
same,ECHCG herbicidal rating,[15]; rate 0.0320 kg/ha,2.0
same,ECHCG herbicidal rating,[15]; rate 0.0620 kg/ha,3.0
same,GLXMAW herbicidal rating,[16]; rate 0.0320 kg/ha,4.0
same,GLXMAW herbicidal rating,[16]; rate 0.0620 kg/ha,6.0
same,"herbicidal rating, ECHORC",[17]; rate 0.0080 kg/ha,0.0
same,"herbicidal rating, ECHORC",[17]; rate 0.0320 kg/ha,6.0
same,"herbicidal rating, ECHORC",[17]; rate 0.1250 kg/ha,7.0
"CC(C)C1COC(c2nsc3ccc(-n4c(=O)cc(C(F)(F)F)n(C)c4=O)cc23)=N1 (centres unmarked) [Compound 74, 3-[3-(4-isopropyl-2-oxazolin-2-yl)-1,2-benzisothiazol-5-yl]-1-methyl-6-(trifluoromethyl)uracil]","herbicidal rating, SAGPY",[1]; rate 0.0080 kg/ha,0.0
same,"herbicidal rating, SAGPY",[1]; rate 0.0320 kg/ha,1.5
same,"herbicidal rating, SAGPY",[1]; rate 0.1250 kg/ha,7.0
same,Preemergence herbicidal rating CHEAL,[2]; Rate 0.0620 kg/ha,9.0
same,Preemergence herbicidal rating CHEAL,[2]; Rate 0.1250 kg/ha,9.0
same,Preemergence herbicidal rating CHEAL,[2]; Rate 0.2500 kg/ha,9.0
same,Preemergence herbicidal rating AMBEL,[3]; Rate 0.0620 kg/ha,0.0
same,Preemergence herbicidal rating AMBEL,[3]; Rate 0.1250 kg/ha,6.0
same,Preemergence herbicidal rating AMBEL,[3]; Rate 0.2500 kg/ha,9.0
same,Preemergence herbicidal rating CASOB,[4]; Rate 0.0620 kg/ha,0.0
same,Preemergence herbicidal rating CASOB,[4]; Rate 0.1250 kg/ha,0.0
same,Preemergence herbicidal rating CASOB,[4]; Rate 0.2500 kg/ha,3.0
same,Preemergence herbicidal rating SETVI,SETVI (Setaria viridis) [5]; Rate 0.0620 kg/ha,0.0
same,Preemergence herbicidal rating SETVI,SETVI (Setaria viridis) [5]; Rate 0.1250 kg/ha,2.0
same,Preemergence herbicidal rating SETVI,SETVI (Setaria viridis) [5]; Rate 0.2500 kg/ha,8.0
same,Preemergence herbicidal rating ECHCG,[6]; Rate 0.0620 kg/ha,0.0
same,Preemergence herbicidal rating ECHCG,[6]; Rate 0.1250 kg/ha,2.0
same,Preemergence herbicidal rating ECHCG,[6]; Rate 0.2500 kg/ha,6.0
same,"herbicidal rating, MOOVA",[7]; rate 0.0080 kg/ha,4.5
same,"herbicidal rating, MOOVA",[7]; rate 0.0320 kg/ha,9.0
same,"herbicidal rating, MOOVA",[7]; rate 0.1250 kg/ha,9.0
same,GALAP herbicidal rating,GALAP (Galium aparine); rate 0.0320 kg/ha,6.0
same,GALAP herbicidal rating,GALAP (Galium aparine); rate 0.0620 kg/ha,8.0
same,ORYSAT herbicidal rating,"ORYSAT (Rice, Tebonnet) [8]; rate 0.0320 kg/ha",3.5
same,ORYSAT herbicidal rating,"ORYSAT (Rice, Tebonnet) [8]; rate 0.0620 kg/ha",4.0
same,Preemergence herbicidal rating ORYSAT,"ORYSAT (Rice, Tebonnet) [9]; Rate 0.0620 kg/ha",1.0
same,Preemergence herbicidal rating ORYSAT,"ORYSAT (Rice, Tebonnet) [9]; Rate 0.1250 kg/ha",1.0
same,Preemergence herbicidal rating ORYSAT,"ORYSAT (Rice, Tebonnet) [9]; Rate 0.2500 kg/ha",5.0
same,"herbicidal rating, ORYSAT (rice tolerance)","ORYSAT (Rice, Tebonnet) [10]; rate 0.0080 kg/ha",1.5
same,"herbicidal rating, ORYSAT (rice tolerance)","ORYSAT (Rice, Tebonnet) [10]; rate 0.0320 kg/ha",4.0
same,"herbicidal rating, ORYSAT (rice tolerance)","ORYSAT (Rice, Tebonnet) [10]; rate 0.1250 kg/ha",6.0
same,ABUTH herbicidal rating,[11]; rate 0.0320 kg/ha,9.0
same,ABUTH herbicidal rating,[11]; rate 0.0620 kg/ha,9.0
same,"herbicidal rating, CYPIR",CYPIR (Cyperus iria); rate 0.0080 kg/ha,0.0
same,"herbicidal rating, CYPIR",CYPIR (Cyperus iria); rate 0.0320 kg/ha,6.0
same,"herbicidal rating, CYPIR",CYPIR (Cyperus iria); rate 0.1250 kg/ha,9.0
same,SETVI herbicidal rating,SETVI (Setaria viridis) [12]; rate 0.0320 kg/ha,2.0
same,SETVI herbicidal rating,SETVI (Setaria viridis) [12]; rate 0.0620 kg/ha,2.0
same,ZEAMX herbicidal rating,"ZEAMX (Corn, Field); rate 0.0320 kg/ha",5.0
same,ZEAMX herbicidal rating,"ZEAMX (Corn, Field); rate 0.0620 kg/ha",5.0
same,Preemergence herbicidal rating IPOHE,[13]; Rate 0.0620 kg/ha,0.0
same,Preemergence herbicidal rating IPOHE,[13]; Rate 0.1250 kg/ha,0.0
same,Preemergence herbicidal rating IPOHE,[13]; Rate 0.2500 kg/ha,8.0
same,IPOHE herbicidal rating,[14]; rate 0.0320 kg/ha,7.0
same,IPOHE herbicidal rating,[14]; rate 0.0620 kg/ha,9.0
same,ECHCG herbicidal rating,[15]; rate 0.0320 kg/ha,2.0
same,ECHCG herbicidal rating,[15]; rate 0.0620 kg/ha,2.0
same,GLXMAW herbicidal rating,[16]; rate 0.0320 kg/ha,5.5
same,GLXMAW herbicidal rating,[16]; rate 0.0620 kg/ha,7.0
same,"herbicidal rating, ECHORC",[17]; rate 0.0080 kg/ha,5.5
same,"herbicidal rating, ECHORC",[17]; rate 0.0320 kg/ha,8.0
same,"herbicidal rating, ECHORC",[17]; rate 0.1250 kg/ha,9.0
